Paper PMC7480010 (Journal of biomolecular screening, 2015)

System: MDA-MB-231
Assay type: cell-based, human
Conditions: anisomycin stimulation

SMILES: Cc1ccc(-n2nc(C(C)(C)C)cc2NC(=O)Nc2ccc(OCCN3CCOCC3)c3ccccc23)cc1 [BIRB-796]
- level of phosphorylated/activated p38: reduces in the overall level of phosphorylated p38
- phosphorylation status of SAPK/JNK: reduces the phosphorylation of JNK
